Experimental data taken from ChEMBL document CHEMBL1201862, “PubChem BioAssay data set” (2004).
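Compound exposure: 48 hours, 5 concentrations, 96-well plates. Abbreviation: GI50, concentration required for 50% inhibition of growth.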 Active and inactive are the calls of the source. Cut-off read from the data, not from the text of the source: active = GI50 up to about 1.1 µM and inactive = higher.

What was measured:
Assay in all cases: inhibition of tumour cell growth, NCI panel, 48 h
A549 = tested on: A549
ACHN = tested on: ACHN
DMS-273 = tested on: DMS-273
EKVX = tested on: EKVX
HCT-116 = tested on: HCT-116
HL-60 = tested on: HL-60
HT-29 = tested on: HT-29
IGROV-1 = tested on: IGROV-1
LOX IMVI = tested on: LOX IMVI
NCI-H226 = tested on: NCI-H226
OVCAR-4 = tested on: OVCAR-4
OVCAR-5 = tested on: OVCAR-5
SK-MEL-2 = tested on: SK-MEL-2
UACC-62 = tested on: UACC-62
DU-145 = tested on: DU-145
HOP-62 = tested on: HOP-62
Hs-578T = tested on: Hs-578T
MDA-MB-231 = tested on: MDA-MB-231
MDA-MB-435 = tested on: MDA-MB-435
MDA-N = tested on: MDA-N

SMILES	GI50 (A549)	GI50 (ACHN)	GI50 (DMS-273)	GI50 (EKVX)	GI50 (HCT-116)	GI50 (HL-60)	GI50 (HT-29)	GI50 (IGROV-1)	GI50 (LOX IMVI)	GI50 (NCI-H226)	GI50 (OVCAR-4)	GI50 (OVCAR-5)	GI50 (SK-MEL-2)	GI50 (UACC-62)	GI50 (DU-145)	GI50 (HOP-62)	GI50 (Hs-578T)	GI50 (MDA-MB-231)	GI50 (MDA-MB-435)	GI50 (MDA-N)
O=C1C(=Cc2cccs2)C(=O)N(CCc2ccccc2)S(=O)(=O)N1CCc1ccccc1	> 50 µM (inactive)	22.6 µM (inactive)	> 50 µM (inactive)	> 50 µM (inactive)	11.7 µM (inactive)	14 µM (inactive)	> 50 µM (inactive)	9.2 µM (inactive)	28.9 µM (inactive)	> 50 µM (inactive)	> 50 µM (inactive)	> 50 µM (inactive)	> 50 µM (inactive)	> 50 µM (inactive)						
O=c1[nH]nc(-c2ccccc2)n1/N=C/c1c[nH]c2ccccc12	> 100 µM (inactive)	> 100 µM (inactive)		> 100 µM (inactive)	42.9 µM (inactive)	> 100 µM (inactive)	41 µM (inactive)	69.5 µM (inactive)	58.7 µM (inactive)	> 100 µM (inactive)	> 100 µM (inactive)	> 100 µM (inactive)	> 100 µM (inactive)	96.8 µM (inactive)	> 100 µM (inactive)	> 100 µM (inactive)	> 100 µM (inactive)	> 100 µM (inactive)	77.1 µM (inactive)	> 100 µM (inactive)
COC1OC(C)C2OC(C)(C)OC2C1OC(C)=O (configuration not stated)	> 100 µM (inactive)	> 100 µM (inactive)	> 100 µM (inactive)		> 100 µM (inactive)	> 100 µM (inactive)	> 100 µM (inactive)	> 100 µM (inactive)	> 100 µM (inactive)	> 100 µM (inactive)	> 100 µM (inactive)	> 100 µM (inactive)		> 100 µM (inactive)		> 100 µM (inactive)				
Cc1ccc(S(=O)(=O)C(C#N)c2nc3ccccc3nc2-n2cccn2)cc1 (configuration not stated)	> 100 µM (inactive)	> 100 µM (inactive)	> 100 µM (inactive)	> 100 µM (inactive)	> 100 µM (inactive)	> 100 µM (inactive)	> 100 µM (inactive)	> 100 µM (inactive)		> 100 µM (inactive)	> 100 µM (inactive)	> 100 µM (inactive)	> 100 µM (inactive)							
CC(=O)OC[C@@H]1[C@H]2CC(=O)O[C@H]2C[C@H]1OC(C)=O	> 100 µM (inactive)	> 100 µM (inactive)	> 100 µM (inactive)	> 100 µM (inactive)	94 µM (inactive)	> 100 µM (inactive)	> 100 µM (inactive)	> 100 µM (inactive)	> 100 µM (inactive)		> 100 µM (inactive)	> 100 µM (inactive)		> 100 µM (inactive)		> 100 µM (inactive)				
S=c1c2ccccc2c(=S)n2n1CC=CC2	> 100 µM (inactive)	> 100 µM (inactive)	> 100 µM (inactive)	> 100 µM (inactive)	> 100 µM (inactive)	> 100 µM (inactive)	> 100 µM (inactive)	> 100 µM (inactive)	> 100 µM (inactive)	> 100 µM (inactive)	> 100 µM (inactive)	> 100 µM (inactive)	> 100 µM (inactive)	> 100 µM (inactive)						
Cc1ccc2cccc(-c3cccc4ccccc34)c2n1	29.5 µM (inactive)	24.4 µM (inactive)		21.4 µM (inactive)	17.8 µM (inactive)	3.33 µM (inactive)	20.7 µM (inactive)	26.5 µM (inactive)	14.9 µM (inactive)	20.5 µM (inactive)	24.9 µM (inactive)	18.3 µM (inactive)	15 µM (inactive)	19.5 µM (inactive)	36.8 µM (inactive)	25.2 µM (inactive)	23.5 µM (inactive)	22.9 µM (inactive)	2.69 µM (inactive)	4.2 µM (inactive)
NC(=O)COc1ccc(Br)cc1Br	> 100 µM (inactive)	> 100 µM (inactive)	> 100 µM (inactive)	29.2 µM (inactive)	> 100 µM (inactive)	> 100 µM (inactive)	> 100 µM (inactive)	> 100 µM (inactive)		> 100 µM (inactive)		> 100 µM (inactive)	> 100 µM (inactive)			> 100 µM (inactive)				
COc1ccc(OC)c(/C=C/c2cnnc3ccccc23)c1	3.27 µM (inactive)	> 10 µM (inactive)		4.15 µM (inactive)	3.4 µM (inactive)	2.79 µM (inactive)	5.31 µM (inactive)	> 10 µM (inactive)	3.48 µM (inactive)	5.73 µM (inactive)	5.48 µM (inactive)	> 10 µM (inactive)	2.16 µM (inactive)	3.74 µM (inactive)	> 10 µM (inactive)	4.12 µM (inactive)	1.43 µM (inactive)	9.46 µM (inactive)	0.638 µM (active)	0.741 µM (active)
O=C1NC(SSC2=NNC3(C(=O)N2)c2ccccc2-c2ccccc23)=NNC12c1ccccc1-c1ccccc12	> 10 µM (inactive)	> 10 µM (inactive)		> 10 µM (inactive)	> 10 µM (inactive)	> 10 µM (inactive)	> 10 µM (inactive)	> 10 µM (inactive)	> 10 µM (inactive)	> 10 µM (inactive)	> 10 µM (inactive)	> 10 µM (inactive)	> 10 µM (inactive)	> 10 µM (inactive)	> 10 µM (inactive)	> 10 µM (inactive)	> 10 µM (inactive)	> 10 µM (inactive)	> 10 µM (inactive)	> 10 µM (inactive)
Cc1cc(C)nc(NS(=O)(=O)c2ccc(NC(=O)c3cccc4cc5ccccc5nc34)cc2)n1	34.3 µM (inactive)	44.3 µM (inactive)	21.9 µM (inactive)	69.8 µM (inactive)	17.2 µM (inactive)		35.8 µM (inactive)	35.5 µM (inactive)	22.9 µM (inactive)	23.2 µM (inactive)	32.8 µM (inactive)	62.2 µM (inactive)	30.3 µM (inactive)	20 µM (inactive)		62.7 µM (inactive)				
C/C=C1\CN2CCc3c([nH]c4ccccc34)C2CC1C(=O)OC (configuration not stated)	> 322 µM (inactive)	> 322 µM (inactive)	> 322 µM (inactive)	> 322 µM (inactive)	> 322 µM (inactive)	> 32.2 µM (inactive)	> 322 µM (inactive)	> 322 µM (inactive)	> 322 µM (inactive)	> 322 µM (inactive)		> 322 µM (inactive)	> 322 µM (inactive)	> 322 µM (inactive)		> 322 µM (inactive)				
CC(=S)NC1C(Oc2ccc3c(C)cc(=O)oc3c2)OC(CO)C(O)C1O (configuration not stated)	> 100 µM (inactive)	> 100 µM (inactive)		> 100 µM (inactive)	> 100 µM (inactive)	> 100 µM (inactive)	> 100 µM (inactive)	> 100 µM (inactive)	> 100 µM (inactive)	> 100 µM (inactive)	> 100 µM (inactive)	> 100 µM (inactive)	> 100 µM (inactive)	> 100 µM (inactive)	> 100 µM (inactive)	> 100 µM (inactive)	> 100 µM (inactive)	> 100 µM (inactive)	> 100 µM (inactive)	> 100 µM (inactive)
CC1=NN2C(=N)/C(=C/c3ccccc3)C(=O)N=C2S1	> 100 µM (inactive)	> 100 µM (inactive)		> 100 µM (inactive)	> 100 µM (inactive)	> 100 µM (inactive)	> 100 µM (inactive)	> 100 µM (inactive)	> 100 µM (inactive)	> 100 µM (inactive)	> 100 µM (inactive)	> 100 µM (inactive)	> 100 µM (inactive)	> 100 µM (inactive)	> 100 µM (inactive)	> 100 µM (inactive)	> 100 µM (inactive)	> 100 µM (inactive)	> 100 µM (inactive)	> 100 µM (inactive)
OC1CC2CCC(C1)N2CCCN1c2ccccc2Sc2ccc(Cl)cc21 (configuration not stated)	2.54 µM (inactive)	2.23 µM (inactive)		3.72 µM (inactive)	1.83 µM (inactive)	2.26 µM (inactive)	1.67 µM (inactive)	1.98 µM (inactive)	1.7 µM (inactive)	5.94 µM (inactive)	3.69 µM (inactive)	2.82 µM (inactive)	1.69 µM (inactive)	1.64 µM (inactive)	3.81 µM (inactive)	4.73 µM (inactive)	2.22 µM (inactive)	1.84 µM (inactive)	1.73 µM (inactive)	1.87 µM (inactive)
O=C1/C(=C/c2ccc(Cl)cc2)CCCc2ccccc21	21.3 µM (inactive)	16.9 µM (inactive)		14.8 µM (inactive)	13.6 µM (inactive)	13.7 µM (inactive)	4.67 µM (inactive)	18.2 µM (inactive)	17.3 µM (inactive)	16.4 µM (inactive)	14.9 µM (inactive)	16.9 µM (inactive)	14.7 µM (inactive)	14.5 µM (inactive)	23.1 µM (inactive)	24.5 µM (inactive)	11.7 µM (inactive)	19.6 µM (inactive)	17.1 µM (inactive)	17.1 µM (inactive)
C[C@@H]1[C@H](C)N1CC(O)Cn1ccnc1[N+](=O)[O-] (some centres not stated)	> 100 µM (inactive)	> 100 µM (inactive)		> 100 µM (inactive)	> 100 µM (inactive)	> 100 µM (inactive)	> 100 µM (inactive)	> 100 µM (inactive)	> 100 µM (inactive)	> 100 µM (inactive)	> 100 µM (inactive)	> 100 µM (inactive)	> 100 µM (inactive)	> 100 µM (inactive)	> 100 µM (inactive)	> 100 µM (inactive)	> 100 µM (inactive)	> 100 µM (inactive)	> 100 µM (inactive)	> 100 µM (inactive)
